# Experiments:
# [1] = biological target: T1, recombinant alpha-synuclein fibrils (Homo sapiens, UniProt P37840); test: Thioflavin T fluorescence of alpha-synuclein fibrils; type: biochemical; conditions: equimolar 100 μM:100 μM, 48 hours at 37° C. in 1×PBS
# T1 construct: made in house; host or cells: E. coli BL21(DE3) Gold
# Procedure: Both compounds were incubated with equimolar ratios of recombinant alpha-synuclein fibrils (100 μM:100 μM) for 48 hours at 37° C. in 1×PBS. After incubation, Thioflavin T (ThT), a fluorescent marker of amyloid fibrils, was added to the samples and ThT fluorescence was measured. EGCG was used as a positive control for comparison. […] Next, transmission electron microscopy (EM) was performed for each sample. […] To obtain a quantitative evaluation of fibril reduction, fibrils were first incubated for 72 hours with compound, then 10 micrographs from random grid points were taken for each sample, and the numbers of fibrils per image were counted (FIG. 5c). […] Western blot analysis, staining for alpha-synuclein, was performed for fibril samples incubated with compounds for 48 hours (FIG. 5d). For untreated alpha-synuclein fibrils, we see a prominent band at 14 kDa corresponding with protein monomer. We also observe a large smear of higher molecular weight alpha-synuclein species, likely corresponding to oligomers or small fibrils, and a dark band at the top of the gel likely from larger fibrils. […] These physical and chemical properties are more predictive of oral bioavailability and central nervous system penetration compared to EGCG, making them more viable candidates for further drug development.
# Compounds were incubated quiescently with fibril samples (both recombinant and brain-derived) for 72 hours at 37° C.
# [2] = biological target: T2, MSA brain fibrils seeding HEK293T alpha-synuclein biosensor cells (Homo sapiens, UniProt P37840); test: Alpha-synuclein biosensor cell seeding assay, MSA brain fibrils; type: cell-based; conditions: sub micromolar concentrations, 48 hours pre-incubation
# T2 construct: Extraction of sarkosyl-insoluble alpha-synuclein fibrils from neuropathologically confirmed brain samples of patients diagnosed with MSA; from tissue; host or cells: seed: MSA patient brain; reporter: stably transfected HEK293T cells from the Marc Diamond lab
# Procedure: Next, we tested the efficacy of the compounds to mitigate the intracellular seeding of MSA fibrils in biosensor cells. Brain-derived MSA fibrils robustly seed intracellular alpha-synuclein in HEK293T biosensor cells^21. […] Cells were imaged 48 hours and the number of fluorescent puncta per sample well was quantified.
# HEK293T biosensor cells stably expressing YFP-fused A53T mutant alpha-synuclein, developed and provided by the lab of Marc Diamond at UTSW were used. Cells were grown in DMEM (Life Technologies, cat. 11965092) with FBS (10% vol/vol; Life Technologies, cat. A3160401), penicillin/streptomycin (1%; Life Technologies, cat. 15140122), and Glutamax (1%; Life Technologies, cat. 35050061), at 37° C. and 5% CO2 in a humidified incubator. Compounds were incubated with recombinant or patient-derived alpha-synuclein fibrils for 48 hours in OptiMEM media then applied to ˜70% confluent biosensor cells. Prior to adding to cells, the coincubated compound/fibril solution was sonicated for 5 minutes in a cuphorn water bath, then mixed for 20 minutes with Lipofectamine 2000 in OptiMEM (1:20 dilution) for 20 minutes. 10 uL of the inhibitor/fibril+Lipofectamine mixture was added to 90 uL of cells plated in black 96-well tissue culture plates in triplicate for each concentration of compound tested. The number of seeded aggregates was quantified using a Celigo Image Cytometer (Nexcelom) in the YFP channel. Images were processed in ImageJ, background fluorescence from unseeded cells was subtracted, and the number of particles per image were counted using the Particle Analyzer function. The quantity of aggregates in each well was normalized to cell confluence. Standard deviation between triplicates and a nonlinear regression curve was used to calculate IC50 values for dose response curves. High quality fluorescent images were obtained using a ZEISS Axio Observer D1 fluorescence microscope in the YFP channel. […]
# [3] = biological target: T3, recombinant alpha-synuclein fibrils seeding HEK293T cells expressing YFP-fused A53T alpha-synuclein (Homo sapiens, UniProt P37840); test: Alpha-synuclein biosensor cell seeding assay, recombinant fibrils; type: cell-based; design: number of fluorescent puncta (seeded aggregates): dose or concentration left out as unconfirmed; conditions: for number of fluorescent puncta (seeded aggregates): 48 hours pre-incubation
# T3 construct: made in house; host or cells: seed: E. coli BL21(DE3) Gold; reporter: stably transfected HEK293T cells from the Marc Diamond lab
# Text: It is thought that alpha-synuclein pathology propagates throughout the brain via a prion-like seeding mechanism^20. Alpha-synuclein aggregates in one cell can fragment and spread to neighboring cells, where they seed the aggregation of soluble protein. Molecules able to disaggregate pre-formed fibrils may be able to interrupt this process. To that end, we assessed if both compounds could mitigate intracellular seeding of αSyn fibrils using alpha-synuclein biosensor cells-HEK293T cells expressing A53T mutant alpha-synuclein fused with yellow fluorescent protein (YFP). At baseline, the fluorescently labeled alpha-synuclein remains soluble within the cell, visible as diffuse fluorescence. However, the liposome-mediated transduction of exogenous αSyn fibrils into the cells induces aggregation of the endogenous protein, and the aggregates can be visualized and quantified as fluorescent puncta within the cell.
# HEK293T biosensor cells stably expressing YFP-fused A53T mutant alpha-synuclein, developed and provided by the lab of Marc Diamond at UTSW were used. […] Prior to adding to cells, the coincubated compound/fibril solution was sonicated for 5 minutes in a cuphorn water bath, then mixed for 20 minutes with Lipofectamine 2000 in OptiMEM (1:20 dilution) for 20 minutes. 10 uL of the inhibitor/fibril+Lipofectamine mixture was added to 90 uL of cells plated in black 96-well tissue culture plates in triplicate for each concentration of compound tested. The number of seeded aggregates was quantified using a Celigo Image Cytometer (Nexcelom) in the YFP channel. Images were processed in ImageJ, background fluorescence from unseeded cells was subtracted, and the number of particles per image were counted using the Particle Analyzer function. The quantity of aggregates in each well was normalized to cell confluence. Standard deviation between triplicates and a nonlinear regression curve was used to calculate IC50 values for dose response curves. High quality fluorescent images were obtained using a ZEISS Axio Observer D1 fluorescence microscope in the YFP channel.
SMILES,ThT signal [1],intracellular seeding by MSA brain fibrils [2],number of fluorescent puncta (seeded aggregates) [3],seeding at low compound concentrations [3]
"Cc1cc(C)c(NC(=O)Cn2nc3c4c(cccc4c2=O)-c2ccccc2-3)c(C)c1 [CNS-11, N-mesityl-2-(3-oxoindeno[1,2,3-de]phthalazin-2(3H)-yl)acetamide]",reduction in ThT signal,very significant reduction in intracellular seeding,dose-dependent reduction in aggregates,initial increase of seeding
"Cc1cccc(C)c1NC(=O)Cn1nc(Cc2ccccc2)c2ccccc2c1=O [CNS-11g, 2-(4-benzyl-1-oxophthalazin-2-yl)-N-(2,6-dimethylphenyl)acetamide]",reduction in ThT signal,very significant reduction in intracellular seeding,dose-dependent reduction in aggregates,not seen
"O=C(O[C@@H]1Cc2c(O)cc(O)cc2O[C@@H]1c1cc(O)c(O)c(O)c1)c1cc(O)c(O)c(O)c1 [EGCG, epigallocatechin gallate]",reduction in ThT signal,very significant reduction in intracellular seeding,dose-dependent reduction,

# — patent US20260021092A1, “STRUCTURE-BASED DESIGN OF A NOVEL CLASS OF DRUGS FOR NEURODEGENERATIVE DISEASE” (The Regents of the University of California, priority 2022, published 2026)
